What was measured:
[1] = Pharmacokinetics in naïve female mice; conditions: mouse, in vivo, NMP-PEG300 10/90
[2] = system: obese and overweight men with hypogonadism and low total motile sperm count; test: Extension of treatment to 48 total weeks; assay type: in vivo, human; conditions: for serum testosterone change from baseline / serum testosterone level: 48-week period
[3] = Stability program: degradation product formation and appearance; assay type: physicochemical; conditions: mixtures of 1% leflutrozole with various excipients, 1 week, 50° C. and 75% relative humidity
Description: The mixtures of excipients used for this study are as follows: mixture 1 (maltodextrin, microcrystalline cellulose, sodium carboxymethylcellulose, Aerosil 200, Cutina HR; 64:29:5:0.5:1.5 ratio), mixture 2 (microcrystalline cellulose, spray dried lactose, sodium carboxylmethyl starch, Aerosil 200, magnesium stearate; 20:73.5:5:0.5:1 ratio), and mixture 3 (microcrystalline cellulose, mannitol, crospovidone, magnesium stearate; 15:79.5:4:1.5 ratio). The buffered solutions are aqueous.

[4] = Dissolution experiments with capsules; assay type: physicochemical; conditions: drug substance particle sizes up to D90 ≤35 μm
[5] = Metabolic stability in rat liver microsomes; assay type: in vitro ADME
[6] = Excretion/elimination of 14C-labeled leflutrozole after oral dosing; assay type: in vivo; conditions: female rats
[7] = Metabolic stability in human liver microsomes; assay type: in vitro ADME
CYP2C9 = target: T1, CYP2C9 (Homo sapiens, UniProt P11712); test: CYP inhibition, pooled human liver microsomes, probe substrates; assay type: in vitro ADME; conditions: up to 100 μM
T1 construct: assessed by pooled human liver microsomes using enzyme selective probe substrates; from tissue; host or cells: pooled human liver microsomes

CYP3A4/5 = test: as above; assay type: in vitro ADME; conditions: up to 100 μM

T1 sequence (P11712 whole entry): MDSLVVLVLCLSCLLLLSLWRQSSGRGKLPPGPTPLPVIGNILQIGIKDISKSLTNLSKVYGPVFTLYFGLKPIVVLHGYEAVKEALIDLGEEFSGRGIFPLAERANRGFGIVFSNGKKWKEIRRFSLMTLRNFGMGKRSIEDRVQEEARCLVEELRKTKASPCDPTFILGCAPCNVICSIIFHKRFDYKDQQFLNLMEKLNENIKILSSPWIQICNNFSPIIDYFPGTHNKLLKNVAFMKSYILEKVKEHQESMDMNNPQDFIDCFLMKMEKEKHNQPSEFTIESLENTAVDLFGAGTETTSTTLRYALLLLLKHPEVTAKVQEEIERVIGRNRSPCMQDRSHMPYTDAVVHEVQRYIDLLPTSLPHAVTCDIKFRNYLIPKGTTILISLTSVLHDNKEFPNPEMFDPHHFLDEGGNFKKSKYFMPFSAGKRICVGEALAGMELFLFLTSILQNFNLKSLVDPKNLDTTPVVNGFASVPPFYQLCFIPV

**Q.** With `N#Cc1ccc(C(F)(c2ccc(C#N)cc2)n2cncn2)cc1` [leflutrozole, 4-[(4-cyanophenyl)-fluoro-(1,2,4-triazol-1-yl)methyl]benzonitrile] as the compound, how does the AUC(0-inf) ([1]; iv, 1 mg/kg i.v.) read?
**A.** The AUC(0-inf) was 34 µM·h.

**Q.** What about the AUC(0-t) ([1]; iv, 1 mg/kg i.v.) of the same compound?
**A.** The AUC(0-t) was 21 µM·h.

**Q.** What about the clearance ([1]; iv, 1 mg/kg i.v.) of the same compound?
**A.** Its clearance is 1.5 mL/min.

**Q.** What about the half-life ([1]; iv, 1 mg/kg i.v.) of the same compound?
**A.** Its half-life is 13 h.

**Q.** And the AUC(0-inf) ([1]; po, 2.5 mg/kg p.o.)?
**A.** Its AUC(0-inf) is 70.2 µM·h.

**Q.** And the AUC(0-t) ([1]; po, 2.5 mg/kg p.o.)?
**A.** Its AUC(0-t) is 61.7 µM·h.

**Q.** And the Cmax ([1]; po, 2.5 mg/kg p.o.)?
**A.** Its Cmax is 2930 nM.

**Q.** What about the half-life ([1]; po, 2.5 mg/kg p.o.) of the same compound?
**A.** The half-life was 13 h.

**Q.** What about the “bone specific alkaline phosphatase” value ([2]; 0.1 mg treatment arm only) of the same compound?
**A.** Its value is “significant increase”.

**Q.** And the “serum testosterone change from baseline” value ([2]; 0.1 mg)?
**A.** Its value is 243.0 ng/dL.

**Q.** And the serum testosterone level ([2]; 0.1 mg)?
**A.** Its serum testosterone level is 494.9 ng/dL.

**Q.** What about the “serum testosterone change from baseline” value ([2]; 0.3 mg) of the same compound?
**A.** Its value is 290.6 ng/dL.

**Q.** And the serum testosterone level ([2]; 0.3 mg)?
**A.** The serum testosterone level was 549.7 ng/dL.

**Q.** What about the “serum testosterone change from baseline” value ([2]; 1.0 mg) of the same compound?
**A.** The value was 376.2 ng/dL.

**Q.** And the serum testosterone level ([2]; 1.0 mg)?
**A.** Its serum testosterone level is 595.1 ng/dL.

**Q.** And the “bone turnover markers (type I collagen C-telopeptides, procollagen-1 N-terminal propeptide, osteocalcin)” value ([2]; by week 48)?
**A.** The value was “increases in all leflutrozole treatment groups”.

**Q.** And the “change in BMD for the hip or femoral neck” value ([2]; week 48)?
**A.** The value was “no significant change”.

**Q.** What about the “clinical meaning of reductions in BMD of the lumbar spine” value ([2]; week 48) of the same compound?
**A.** The value was “did not indicate clinically meaningful osteopenia or osteoporosis”.

**Q.** What about the “percentage decrease of lumbar BMD (DEXA)” value ([2]; week 48, any treatment group) of the same compound?
**A.** The value was no less than −3%.

**Q.** What about the impurities formed [3] of the same compound?
**A.** The impurities formed was “at most 0.5%”.

**Q.** And the “influence of particle size on dissolution of capsules” value [4]?
**A.** Its value is “no relevant influence on dissolution”.

**Q.** What about the CLint scaled [5] of the same compound?
**A.** The CLint scaled was less than 4.6 mL/min/kg.

**Q.** What about the half-life [5] of the same compound?
**A.** Its half-life is greater than 5 h.

**Q.** And the “predominant mechanism of elimination” value [6]?
**A.** Its value is “metabolism”.

**Q.** And the “unchanged leflutrozole excreted via urine” value ([6]; oral dosing)?
**A.** The value was 9%.

**Q.** What about the half-life ([6]; rat, plasma, oral) of the same compound?
**A.** The half-life was 78 h.

**Q.** And the half-life [7]?
**A.** Its half-life is 3.35 h.

**Q.** And the CLint scaled ([7]; read-out: intrinsic clearance (CLint))?
**A.** The CLint scaled was 6.9 mL/min/kg.

**Q.** And the IC50 (CYP2C9)?
**A.** Its IC50 is greater than 50 µM.

**Q.** And the IC50 (CYP3A4/5)?
**A.** The IC50 was greater than 50 µM.

Reference: US20250188043A1 (ReproNovo SA, priority 2023, published 2025)
